{
  "source": "paper PMC11397024",
  "about": "“Strategic Fluorination to Achieve a Potent, Selective, Metabolically Stable, and Orally Bioavailable Inhibitor of CSNK2” (Molecules, 2024)",
  "assay_in_all_cases": "NanoBRET K192",
  "assay_type_in_all_cases": "cell-based",
  "key": {"LIMK2": {"molecular_target": "T1, LIMK2 (Homo sapiens, UniProt P53671)", "T1 construct": "purchased Promega (NanoBRET Target Engagement K192 Kinase Selectivity System)", "conditions": "HEK293", "procedure": "(§1) The K192 selectivity assay was run according to the Draft Promega technical manual, NanoBRET^TM Target Engagement K192 Kinase Selectivity System. Reagents were supplied by Promega (Promega NP 4101). For the assay, DNA from the prepared kinase vector panel plates A and B were mixed with Fugene in 96-well plates (Corning 3917) and incubated at room temperature for 30 min. The NanoLuc® Low control vector pNL1.1.CMV [Nluc/CMV] Vector (Cat.# N1091) and the transfection control vector NanoLuc®-HIPK2 Fusion Vector (Cat.# NV3221) were used as controls.\n(§2) HEK293 cells were grown to 75–95% confluency in DMEM (Gibco 11995-065) supplemented with FBS (Avantor 97068-085) at 37 °C in […]. On the first day of the assay, cells were harvested and resuspended in Opti-MEM (Gibco 11058-021) supplemented with 1% FBS (Avantor 97068-085) at 2.5 × 10^5 cells per mL. A volume of 60 μL of cell suspension was mixed with 10 μL of prepared DNA (10X concentration) and 30 μL of Fugene (30 μL/mL in Opti-MEM) as outlined by Promega and incubated overnight at 37 °C in a 5% CO2 incubator.\n(§3) On day two of the assay, 5 μL of 20X K10 tracer was prepared and added at concentrations recommended by Promega. Then, 10 μL of test compounds at 100 μM in Opti-MEM (diluted from a 10 mM solution in DMSO) was added to the test wells while an equivalent volume of Opti-MEM was added to the high-control wells. Plates were kept at 37 °C in a 5% CO2 incubator for two hours. After two hours, plates were allowed to equilibrate to room temperature for 15 min. A solution of 3X Complete Substrate plus Inhibitor Solution was freshly prepared, consisting of a 1:166 dilution of NanoBRET™ Nano-Glo® Substrate plus a 1:500 dilution of Extracellular NanoLuc® Inhibitor in Opti-MEM® medium without serum or phenol red. A 50 μL volume of the 3X Complete Substrate plus Inhibitor Solution was added to each assay well, including control wells. After 2–3 min, the plate was shaken at 300 RPM for 10 s, and the donor emission wavelength (450 nm) and acceptor emission wavelength (610 nm) were measured using the Glomax® Discover System.\n(§4) As a quality check, the donor signal-to-background ratio was calculated for each individual kinase by dividing the mean donor signal for each kinase by the mean donor signal for the signal-to-background control wells. Fractional occupancy of the test drug for each kinase was determined using the following formula:Occupancy (%) = [1 − (Sample − Bottom)/(Top − Bottom)] × 100 where"}, "WEE1": {"molecular_target": "T2, WEE1 (Homo sapiens, UniProt P30291)", "T2 construct": "purchased Promega (NanoBRET Target Engagement K192 Kinase Selectivity System)", "conditions": "HEK293", "procedure": "as §1, §2, §3, §4"}, "RIPK2": {"molecular_target": "T3, RIPK2 (Homo sapiens, UniProt O43353)", "T3 construct": "purchased Promega (NanoBRET Target Engagement K192 Kinase Selectivity System)", "conditions": "HEK293", "procedure": "as §1, §2, §3, §4"}, "CDK17 + Y": {"molecular_target": "T4, CDK17 + Y (Homo sapiens, UniProt Q00537)", "T4 construct": "purchased Promega (NanoBRET Target Engagement K192 Kinase Selectivity System)", "conditions": "HEK293", "procedure": "as §1, §2, §3, §4"}, "CSNK2A2": {"molecular_target": "T5, CSNK2A2 (Homo sapiens, UniProt P19784)", "T5 construct": "expressed in transfected cells; host or cells: HEK293", "T5 sequence (P19784 whole entry)": "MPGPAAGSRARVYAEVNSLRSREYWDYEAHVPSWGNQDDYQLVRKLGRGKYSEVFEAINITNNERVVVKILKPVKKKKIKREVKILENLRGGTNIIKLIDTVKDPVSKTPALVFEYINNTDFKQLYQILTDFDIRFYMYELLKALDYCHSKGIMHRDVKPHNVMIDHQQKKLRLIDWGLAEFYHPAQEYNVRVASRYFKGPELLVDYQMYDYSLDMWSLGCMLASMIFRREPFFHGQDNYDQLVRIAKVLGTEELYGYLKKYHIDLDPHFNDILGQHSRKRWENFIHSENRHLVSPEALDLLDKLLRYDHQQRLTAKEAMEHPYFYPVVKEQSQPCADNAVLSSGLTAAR", "procedure": "as §1, §2, §3, §4"}, "ERN2": {"molecular_target": "T6, ERN2 (Homo sapiens, UniProt Q76MJ5)", "T6 construct": "purchased Promega (NanoBRET Target Engagement K192 Kinase Selectivity System)", "conditions": "HEK293", "procedure": "as §1, §2, §3, §4"}, "MAP3K3": {"molecular_target": "T7, MAP3K3 (Homo sapiens, UniProt Q99759)", "T7 construct": "purchased Promega (NanoBRET Target Engagement K192 Kinase Selectivity System)", "T7 sequence (Q99759 whole entry)": "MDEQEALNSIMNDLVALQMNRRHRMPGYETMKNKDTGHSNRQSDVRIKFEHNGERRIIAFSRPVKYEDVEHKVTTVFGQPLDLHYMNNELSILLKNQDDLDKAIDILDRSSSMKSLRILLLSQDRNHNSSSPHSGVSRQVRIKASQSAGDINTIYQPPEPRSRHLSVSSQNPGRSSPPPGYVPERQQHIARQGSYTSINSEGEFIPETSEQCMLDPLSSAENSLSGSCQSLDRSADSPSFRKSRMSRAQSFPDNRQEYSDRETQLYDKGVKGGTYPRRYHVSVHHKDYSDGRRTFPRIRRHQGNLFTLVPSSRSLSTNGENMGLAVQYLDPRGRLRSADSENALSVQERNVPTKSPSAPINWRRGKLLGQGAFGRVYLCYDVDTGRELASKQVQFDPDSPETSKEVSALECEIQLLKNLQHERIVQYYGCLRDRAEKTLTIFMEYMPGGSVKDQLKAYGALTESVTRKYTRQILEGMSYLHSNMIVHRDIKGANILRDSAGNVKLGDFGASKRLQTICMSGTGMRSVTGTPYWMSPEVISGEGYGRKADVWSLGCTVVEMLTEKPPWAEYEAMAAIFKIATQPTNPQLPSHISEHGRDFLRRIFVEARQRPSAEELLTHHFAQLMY", "conditions": "HEK293", "procedure": "as §1, §2, §3, §4"}, "MKNK2": {"molecular_target": "T8, MKNK2 (Homo sapiens, UniProt Q9HBH9)", "T8 construct": "purchased Promega (NanoBRET Target Engagement K192 Kinase Selectivity System)", "conditions": "HEK293", "procedure": "as §1, §2, §3, §4"}, "BRSK2": {"molecular_target": "T9, BRSK2 (Homo sapiens, UniProt Q8IWQ3)", "T9 construct": "purchased Promega (NanoBRET Target Engagement K192 Kinase Selectivity System)", "conditions": "HEK293", "procedure": "as §1, §2, §3, §4"}, "MYLK3": {"molecular_target": "T10, MYLK3 (Homo sapiens, UniProt Q32MK0)", "T10 construct": "purchased Promega (NanoBRET Target Engagement K192 Kinase Selectivity System)", "conditions": "HEK293", "procedure": "as §1, §2, §3, §4"}, "SIK3": {"molecular_target": "T11, SIK3 (Homo sapiens, UniProt Q9Y2K2)", "T11 construct": "purchased Promega (NanoBRET Target Engagement K192 Kinase Selectivity System)", "conditions": "HEK293", "procedure": "as §1, §2, §3, §4"}, "ULK2": {"molecular_target": "T12, ULK2 (Homo sapiens, UniProt Q8IYT8)", "T12 construct": "purchased Promega (NanoBRET Target Engagement K192 Kinase Selectivity System)", "conditions": "HEK293", "procedure": "as §1, §2, §3, §4"}, "MAP4K1": {"molecular_target": "T13, MAP4K1 (Homo sapiens, UniProt Q92918)", "T13 construct": "purchased Promega (NanoBRET Target Engagement K192 Kinase Selectivity System)", "T13 sequence (Q92918 whole entry)": "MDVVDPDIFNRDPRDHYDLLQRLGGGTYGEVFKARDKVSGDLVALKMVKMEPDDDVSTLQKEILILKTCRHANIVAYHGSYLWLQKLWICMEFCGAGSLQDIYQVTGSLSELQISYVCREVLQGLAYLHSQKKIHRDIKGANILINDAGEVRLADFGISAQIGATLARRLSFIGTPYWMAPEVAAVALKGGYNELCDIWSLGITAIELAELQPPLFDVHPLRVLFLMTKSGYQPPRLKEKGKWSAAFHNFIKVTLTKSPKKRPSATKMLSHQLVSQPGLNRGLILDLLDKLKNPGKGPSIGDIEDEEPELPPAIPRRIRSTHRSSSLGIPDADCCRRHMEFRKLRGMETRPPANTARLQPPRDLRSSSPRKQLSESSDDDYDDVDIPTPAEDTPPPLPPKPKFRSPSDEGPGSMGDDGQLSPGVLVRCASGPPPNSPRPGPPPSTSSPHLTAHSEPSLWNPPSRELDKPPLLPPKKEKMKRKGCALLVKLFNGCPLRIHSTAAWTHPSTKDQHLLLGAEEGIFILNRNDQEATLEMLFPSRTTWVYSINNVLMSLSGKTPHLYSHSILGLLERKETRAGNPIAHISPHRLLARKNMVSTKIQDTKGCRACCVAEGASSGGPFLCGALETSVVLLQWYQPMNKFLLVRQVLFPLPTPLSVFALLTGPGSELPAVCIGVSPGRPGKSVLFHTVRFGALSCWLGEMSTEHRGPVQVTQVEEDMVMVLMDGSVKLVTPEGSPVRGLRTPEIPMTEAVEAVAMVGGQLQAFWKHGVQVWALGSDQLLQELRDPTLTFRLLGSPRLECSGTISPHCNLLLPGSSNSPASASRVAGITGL", "conditions": "HEK293", "procedure": "as §1, §2, §3, §4"}, "PTK2": {"molecular_target": "T14, PTK2 (Homo sapiens, UniProt Q05397)", "T14 construct": "purchased Promega (NanoBRET Target Engagement K192 Kinase Selectivity System)", "conditions": "HEK293", "procedure": "as §1, §2, §3, §4"}, "CAMK2D": {"molecular_target": "T15, CAMK2D (Homo sapiens, UniProt Q13557)", "T15 construct": "purchased Promega (NanoBRET Target Engagement K192 Kinase Selectivity System)", "conditions": "HEK293", "procedure": "as §1, §2, §3, §4"}, "LRRK2": {"molecular_target": "T16, LRRK2 (Homo sapiens, UniProt Q5S007)", "T16 construct": "purchased Promega (NanoBRET Target Engagement K192 Kinase Selectivity System)", "T16 sequence (Q5S007 whole entry)": "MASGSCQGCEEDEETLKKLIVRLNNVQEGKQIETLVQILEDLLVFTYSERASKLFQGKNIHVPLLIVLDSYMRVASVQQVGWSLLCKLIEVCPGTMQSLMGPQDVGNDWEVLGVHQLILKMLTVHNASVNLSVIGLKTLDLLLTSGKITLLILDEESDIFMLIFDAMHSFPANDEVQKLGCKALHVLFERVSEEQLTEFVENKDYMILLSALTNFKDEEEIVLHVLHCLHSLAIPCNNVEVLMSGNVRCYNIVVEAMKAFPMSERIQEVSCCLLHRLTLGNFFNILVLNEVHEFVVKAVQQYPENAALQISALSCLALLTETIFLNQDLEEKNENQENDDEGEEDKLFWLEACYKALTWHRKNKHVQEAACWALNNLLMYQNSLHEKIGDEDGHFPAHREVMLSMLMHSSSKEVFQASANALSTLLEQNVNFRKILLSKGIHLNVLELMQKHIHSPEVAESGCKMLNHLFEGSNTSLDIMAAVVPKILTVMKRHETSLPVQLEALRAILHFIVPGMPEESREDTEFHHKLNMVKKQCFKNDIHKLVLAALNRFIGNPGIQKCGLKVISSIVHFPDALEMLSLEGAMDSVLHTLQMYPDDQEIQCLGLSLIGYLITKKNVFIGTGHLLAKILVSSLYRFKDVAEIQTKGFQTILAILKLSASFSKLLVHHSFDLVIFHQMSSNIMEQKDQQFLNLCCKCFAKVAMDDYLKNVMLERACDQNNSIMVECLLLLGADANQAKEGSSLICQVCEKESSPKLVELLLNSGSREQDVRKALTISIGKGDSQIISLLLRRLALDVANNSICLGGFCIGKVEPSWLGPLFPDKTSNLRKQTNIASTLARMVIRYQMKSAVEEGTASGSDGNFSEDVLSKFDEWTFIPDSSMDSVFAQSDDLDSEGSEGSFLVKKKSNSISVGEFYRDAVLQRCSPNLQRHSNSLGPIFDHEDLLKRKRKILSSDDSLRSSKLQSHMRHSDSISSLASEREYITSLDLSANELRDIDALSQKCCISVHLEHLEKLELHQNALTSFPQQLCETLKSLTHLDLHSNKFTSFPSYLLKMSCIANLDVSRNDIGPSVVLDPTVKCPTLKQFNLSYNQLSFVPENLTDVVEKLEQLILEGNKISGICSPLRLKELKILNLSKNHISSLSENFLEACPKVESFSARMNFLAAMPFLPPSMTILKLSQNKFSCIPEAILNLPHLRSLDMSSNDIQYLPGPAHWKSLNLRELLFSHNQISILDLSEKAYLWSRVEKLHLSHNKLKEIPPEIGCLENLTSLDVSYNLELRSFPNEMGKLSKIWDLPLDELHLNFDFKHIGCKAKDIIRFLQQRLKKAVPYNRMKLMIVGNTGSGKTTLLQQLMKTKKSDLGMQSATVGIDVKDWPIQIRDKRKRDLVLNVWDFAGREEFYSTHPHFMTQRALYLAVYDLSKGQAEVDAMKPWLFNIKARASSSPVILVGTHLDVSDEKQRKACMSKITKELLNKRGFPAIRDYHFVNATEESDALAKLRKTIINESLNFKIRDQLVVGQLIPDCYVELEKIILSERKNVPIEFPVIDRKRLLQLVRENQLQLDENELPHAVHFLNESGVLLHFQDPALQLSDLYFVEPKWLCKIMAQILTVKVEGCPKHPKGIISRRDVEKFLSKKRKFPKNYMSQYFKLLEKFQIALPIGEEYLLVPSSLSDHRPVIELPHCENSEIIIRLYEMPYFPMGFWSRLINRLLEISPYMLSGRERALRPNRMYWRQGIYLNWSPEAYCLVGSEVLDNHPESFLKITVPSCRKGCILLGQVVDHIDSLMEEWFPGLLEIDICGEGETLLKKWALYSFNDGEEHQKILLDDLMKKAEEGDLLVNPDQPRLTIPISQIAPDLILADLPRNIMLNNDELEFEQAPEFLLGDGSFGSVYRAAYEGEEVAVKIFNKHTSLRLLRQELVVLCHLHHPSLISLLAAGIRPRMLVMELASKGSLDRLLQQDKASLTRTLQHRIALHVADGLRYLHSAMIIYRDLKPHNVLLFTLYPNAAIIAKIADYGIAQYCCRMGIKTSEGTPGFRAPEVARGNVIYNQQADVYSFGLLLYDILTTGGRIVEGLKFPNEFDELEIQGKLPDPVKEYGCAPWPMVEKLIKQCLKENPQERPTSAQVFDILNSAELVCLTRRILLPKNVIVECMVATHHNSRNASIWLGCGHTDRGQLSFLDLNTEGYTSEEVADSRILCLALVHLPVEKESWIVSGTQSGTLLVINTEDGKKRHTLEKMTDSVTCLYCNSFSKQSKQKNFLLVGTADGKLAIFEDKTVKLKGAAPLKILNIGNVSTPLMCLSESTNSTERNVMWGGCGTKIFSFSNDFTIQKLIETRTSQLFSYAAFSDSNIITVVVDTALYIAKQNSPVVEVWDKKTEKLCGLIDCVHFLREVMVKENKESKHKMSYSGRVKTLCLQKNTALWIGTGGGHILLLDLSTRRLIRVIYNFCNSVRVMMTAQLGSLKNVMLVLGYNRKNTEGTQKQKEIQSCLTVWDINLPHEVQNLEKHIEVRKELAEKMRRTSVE", "conditions": "HEK293", "procedure": "as §1, §2, §3, §4"}, "TBK1": {"molecular_target": "T17, TBK1 (Homo sapiens, UniProt Q9UHD2)", "T17 construct": "purchased Promega (NanoBRET Target Engagement K192 Kinase Selectivity System)", "conditions": "HEK293", "procedure": "as §1, §2, §3, §4"}, "CDK2 + E1": {"molecular_target": "T18, CDK2 + E1 (Homo sapiens, UniProt P24941)", "T18 construct": "purchased Promega (NanoBRET Target Engagement K192 Kinase Selectivity System)", "conditions": "HEK293", "procedure": "as §1, §2, §3, §4"}, "GAK": {"molecular_target": "T19, GAK (Homo sapiens, UniProt O14976)", "T19 construct": "purchased Promega (NanoBRET Target Engagement K192 Kinase Selectivity System)", "conditions": "HEK293", "procedure": "as §1, §2, §3, §4"}, "BRSK1": {"molecular_target": "T20, BRSK1 (Homo sapiens, UniProt Q8TDC3)", "T20 construct": "purchased Promega (NanoBRET Target Engagement K192 Kinase Selectivity System)", "conditions": "HEK293", "procedure": "as §1, §2, §3, §4"}, "PRKCE": {"molecular_target": "T21, PRKCE (Homo sapiens, UniProt Q02156)", "T21 construct": "purchased Promega (NanoBRET Target Engagement K192 Kinase Selectivity System)", "conditions": "HEK293", "procedure": "as §1, §2, §3, §4"}, "MLTK": {"molecular_target": "T22, MLTK (Homo sapiens, UniProt Q9NYL2)", "T22 construct": "purchased Promega (NanoBRET Target Engagement K192 Kinase Selectivity System)", "conditions": "HEK293", "procedure": "as §1, §2, §3, §4"}, "HIPK4": {"molecular_target": "T23, HIPK4 (Homo sapiens, UniProt Q8NE63)", "T23 construct": "purchased Promega (NanoBRET Target Engagement K192 Kinase Selectivity System)", "conditions": "HEK293", "procedure": "as §1, §2, §3, §4"}, "FGFR3": {"molecular_target": "T24, FGFR3 (Homo sapiens, UniProt P22607)", "T24 construct": "purchased Promega (NanoBRET Target Engagement K192 Kinase Selectivity System)", "T24 sequence (P22607 23-806)": "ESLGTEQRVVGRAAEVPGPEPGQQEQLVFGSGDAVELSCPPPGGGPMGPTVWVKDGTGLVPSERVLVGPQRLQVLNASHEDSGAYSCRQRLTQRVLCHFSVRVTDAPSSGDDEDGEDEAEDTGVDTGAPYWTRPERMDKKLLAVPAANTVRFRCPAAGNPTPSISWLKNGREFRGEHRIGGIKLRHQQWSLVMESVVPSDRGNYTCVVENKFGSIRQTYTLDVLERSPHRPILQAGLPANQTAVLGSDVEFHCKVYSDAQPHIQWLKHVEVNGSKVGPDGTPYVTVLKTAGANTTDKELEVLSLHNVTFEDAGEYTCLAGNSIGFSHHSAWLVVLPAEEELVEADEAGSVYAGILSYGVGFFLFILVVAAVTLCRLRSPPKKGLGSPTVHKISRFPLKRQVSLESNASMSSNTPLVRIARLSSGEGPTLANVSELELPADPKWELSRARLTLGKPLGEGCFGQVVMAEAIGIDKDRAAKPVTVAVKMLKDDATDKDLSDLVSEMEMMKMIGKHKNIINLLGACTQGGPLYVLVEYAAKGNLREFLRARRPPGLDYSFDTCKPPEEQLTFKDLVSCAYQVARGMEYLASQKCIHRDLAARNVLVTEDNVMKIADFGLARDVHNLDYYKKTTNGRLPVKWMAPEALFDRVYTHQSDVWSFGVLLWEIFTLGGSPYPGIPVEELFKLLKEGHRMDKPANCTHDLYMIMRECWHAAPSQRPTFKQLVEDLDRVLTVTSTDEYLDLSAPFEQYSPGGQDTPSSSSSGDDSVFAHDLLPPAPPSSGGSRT", "conditions": "HEK293", "procedure": "as §1, §2, §3, §4"}, "CDK1 + B1": {"molecular_target": "T25, CDK1 + B1 (Homo sapiens, UniProt P06493)", "T25 construct": "purchased Promega (NanoBRET Target Engagement K192 Kinase Selectivity System)", "conditions": "HEK293", "procedure": "as §1, §2, §3, §4"}, "STK4": {"molecular_target": "T26, STK4 (Homo sapiens, UniProt Q13043)", "T26 construct": "purchased Promega (NanoBRET Target Engagement K192 Kinase Selectivity System)", "conditions": "HEK293", "procedure": "as §1, §2, §3, §4"}, "STK32B": {"molecular_target": "T27, STK32B (Homo sapiens, UniProt Q9NY57)", "T27 construct": "purchased Promega (NanoBRET Target Engagement K192 Kinase Selectivity System)", "conditions": "HEK293", "procedure": "as §1, §2, §3, §4"}, "CSNK1A1L": {"molecular_target": "T28, CSNK1A1L (Homo sapiens, UniProt Q8N752)", "T28 construct": "purchased Promega (NanoBRET Target Engagement K192 Kinase Selectivity System)", "conditions": "HEK293", "procedure": "as §1, §2, §3, §4"}},
  "data": [
    {"smiles": "CCC(=O)Nc1cc(Nc2cc(NC3CC3)n3ncc(C#N)c3n2)c(F)cc1N1CCC[C@H](NC)C1", "note": "[Compound 2, (S)-N-(5-((3-cyano-7-(cyclopropylamino)pyrazolo[1,5-a]pyrimidin-5-yl)amino)-4-fluoro-2-(3-(methylamino)piperidin-1-yl)phenyl)propionamide]", "values": [
      {"measurement": "receptor occupancy at 10 µM", "setting": "LIMK2", "value": 1.1, "unit": "%"},
      {"measurement": "receptor occupancy at 10 µM", "setting": "WEE1", "value": 17.8, "unit": "%"},
      {"measurement": "receptor occupancy at 10 µM", "setting": "RIPK2", "value": 9.3, "unit": "%"},
      {"measurement": "receptor occupancy at 10 µM", "setting": "CDK17 + Y", "value": 20.2, "unit": "%"},
      {"measurement": "% occupancy at 10 μM", "setting": "CSNK2A2; CSNK2A2, HEK293", "value": 97, "unit": "%"},
      {"measurement": "receptor occupancy at 10 µM", "setting": "CSNK2A2; HEK293, CSNK2A2", "value": 96.9, "unit": "%"},
      {"measurement": "receptor occupancy at 10 µM", "setting": "ERN2", "value": 9.2, "unit": "%"},
      {"measurement": "receptor occupancy at 10 µM", "setting": "MAP3K3", "value": 10.1, "unit": "%"},
      {"measurement": "receptor occupancy at 10 µM", "setting": "MKNK2", "value": 23.6, "unit": "%"},
      {"measurement": "receptor occupancy at 10 µM", "setting": "BRSK2", "value": 13.6, "unit": "%"},
      {"measurement": "receptor occupancy at 10 µM", "setting": "MYLK3", "value": 0.4, "unit": "%"},
      {"measurement": "receptor occupancy at 10 µM", "setting": "SIK3", "value": 2.7, "unit": "%"},
      {"measurement": "receptor occupancy at 10 µM", "setting": "ULK2", "value": 15.5, "unit": "%"},
      {"measurement": "receptor occupancy at 10 µM", "setting": "MAP4K1", "value": 5.1, "unit": "%"},
      {"measurement": "receptor occupancy at 10 µM", "setting": "PTK2", "value": 15.7, "unit": "%"},
      {"measurement": "receptor occupancy at 10 µM", "setting": "CAMK2D", "value": 18.4, "unit": "%"},
      {"measurement": "receptor occupancy at 10 µM", "setting": "LRRK2", "value": -1.5, "unit": "%"},
      {"measurement": "receptor occupancy at 10 µM", "setting": "TBK1", "value": 18.5, "unit": "%"},
      {"measurement": "receptor occupancy at 10 µM", "setting": "CDK2 + E1", "value": 15.9, "unit": "%"},
      {"measurement": "receptor occupancy at 10 µM", "setting": "GAK", "value": 3.3, "unit": "%"},
      {"measurement": "receptor occupancy at 10 µM", "setting": "BRSK1", "value": 17.7, "unit": "%"},
      {"measurement": "receptor occupancy at 10 µM", "setting": "PRKCE", "value": 6.2, "unit": "%"},
      {"measurement": "receptor occupancy at 10 µM", "setting": "MLTK", "value": 1.1, "unit": "%"},
      {"measurement": "receptor occupancy at 10 µM", "setting": "HIPK4", "value": 39.9, "unit": "%"},
      {"measurement": "receptor occupancy at 10 µM", "setting": "FGFR3", "value": -0.7, "unit": "%"},
      {"measurement": "receptor occupancy at 10 µM", "setting": "CDK1 + B1", "value": 6.2, "unit": "%"},
      {"measurement": "receptor occupancy at 10 µM", "setting": "STK4", "value": 6.9, "unit": "%"},
      {"measurement": "receptor occupancy at 10 µM", "setting": "STK32B", "value": 5.9, "unit": "%"},
      {"measurement": "receptor occupancy at 10 µM", "setting": "CSNK1A1L", "value": 1.5, "unit": "%"}
    ]}
  ]
}
